# Key:
# barnyardgrjass = experiment: Foliar spread test for upland field; format: in vivo, Eschinochloa crusgalli; parameters: key: 0 = normal development, 5 = all killed (6 ranks vs. untreated); conditions: foliar spray, 500 ppm, 3 weeks, glass house 25° C.
# In short: (§1)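 Plants grown about 2 weeks at 25 °C in volcanic ash soil were sprayed with wettable powder diluted to 500 ppm in water with 0.5% surfactant. After 3 weeks at 25 °C, damage was scored 0 (normal) to 5 (all killed) against untreated plants.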
# blackgrass [1] = experiment: Foliar spread test for upland field; format: in vivo, Alopecurus aegualis; parameters: key: 0 = normal development, 5 = all killed (6 ranks vs. untreated); conditions: foliar spray, 500 ppm, 3 weeks, glass house 25° C.
# In short: as §1
# Large crabgrass [2] = experiment: Soil treatment test for upland field; format: in vivo, Digitaria adscendens; parameters: key: 0 = normal development, 5 = all killed; conditions: 500 g/ha, 3 weeks, glass house 25° C.
# In short: (§2)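 Scored on a 0–5 scale (0 normal growth, 5 all killed) relative to untreated plots after 3 weeks in a glasshouse averaging 25° C. Compound applied as surfactant-containing (0.05%) aqueous dilution of wettable powder onto the surface of sown Ube alluvial soil at 500 g/ha.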
# barnyard grass [3] = experiment: Herbicidal test for paddy field; format: in vivo, Eschinochloa crusgalli; conditions: 500 g/ha, dropwise addition to paddy water at 1.5 leaf stage of barnyard grass; glass house 25° C., 3 weeks; rank 0-5 vs non-treated district
# In short: (§3)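 Wettable-powder formulations in water with 0.05% surfactant were dripped onto flooded (3 cm) Ube alluvial-soil pots at 500 g/ha, applied at barnyard grass 1.5-leaf stage. Plants were kept in a glasshouse at 25° C. for 3 weeks. Damage was scored 0 (normal) to 5 (all killed) versus untreated plants.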
# green foxtail [4] = experiment: Soil treatment test for upland field; format: in vivo, Setaria viridis; parameters: key: 0 = normal development, 5 = all killed; conditions: 500 g/ha, 3 weeks, glass house 25° C.
# In short: as §2
# velvetleaf [5] = experiment: Foliar spread test for upland field; format: in vivo, Abutilon theophrasti; parameters: key: 0 = normal development, 5 = all killed (6 ranks vs. untreated); conditions: foliar spray, 500 ppm, 3 weeks, glass house 25° C.
# In short: as §1
# livid amaranth [6] = experiment: Foliar spread test for upland field; format: in vivo, Amaranthus lividus; parameters: key: 0 = normal development, 5 = all killed (6 ranks vs. untreated); conditions: foliar spray, 500 ppm, 3 weeks, glass house 25° C.
# In short: as §1
# velvetleaf [7] = experiment: Soil treatment test for upland field; format: in vivo, Abutilon theophrasti; parameters: key: 0 = normal development, 5 = all killed; conditions: 500 g/ha, 3 weeks, glass house 25° C.
# In short: as §2
# common lambsquarters [8] = experiment: Soil treatment test for upland field; format: in vivo, Chenopodium album; parameters: key: 0 = normal development, 5 = all killed; conditions: 500 g/ha, 3 weeks, glass house 25° C.
# In short: as §2
# green foxtail [9] = experiment: Foliar spread test for upland field; format: in vivo, Setaria viridis; parameters: key: 0 = normal development, 5 = all killed (6 ranks vs. untreated); conditions: foliar spray, 500 ppm, 3 weeks, glass house 25° C.
# In short: as §1
# arrowhead = experiment: Herbicidal test for paddy field; format: in vivo, Sagittaria pygmaea; conditions: 500 g/ha, dropwise addition to paddy water at 1.5 leaf stage of barnyard grass; glass house 25° C., 3 weeks; rank 0-5 vs non-treated district
# Experimental: Wagner pots, each having an area of 1/5000 are, were packed with Ube soil (alluvial soil) and planted with seeds or tubers of young rice plant, barnyard grass, bulrush, Cyperus serotinus Rottb., arrowhead and monochoria. Then, the pots were filled with water to a depth of 3 cm.
# Each wettable powder of the desired Compounds (I) shown in Tables 1 to 21, 24, 25, 28 and 29 prepared in accordance with Example 2 was diluted with water containing a surfactant (0.05%) and subjected to dropwise addition treatment by using pipet so that an effective concentration of the compound (I) in each herbicide became 500 g/ha at 1.5 leaf stage of barnyard grass.
# (§4) These plants were controlled in a glass house at an average temperature of 25° C. for 3 weeks, and then herbicidal effects thereof were investigated.
# (§5) The herbicidal effects are evaluated according to the following 6 ranks as compared with non-treated district. (0: normal development, 1: Less damaged, 2: Slightly damaged, 3: Moderately damaged, 4: Severely damaged, 5: All killed). Incidentally, “-” in the column means not investigated.
# livid amaranth [10] = experiment: Soil treatment test for upland field; format: in vivo, Amaranthus lividus; parameters: key: 0 = normal development, 5 = all killed; conditions: 500 g/ha, 3 weeks, glass house 25° C.
# In short: as §2
# annual bluegrass [11] = experiment: Soil treatment test for upland field; format: in vivo, Poa annua; parameters: key: 0 = normal development, 5 = all killed; conditions: 500 g/ha, 3 weeks, glass house 25° C.
# In short: as §2
# annual bluegrass [12] = experiment: Foliar spread test for upland field; format: in vivo, Poa annua; parameters: key: 0 = normal development, 5 = all killed (6 ranks vs. untreated); conditions: foliar spray, 500 ppm, 3 weeks, glass house 25° C.
# In short: as §1
# Large crabgrass [13] = experiment: Foliar spread test for upland field; format: in vivo, Digitaria adscendens; parameters: key: 0 = normal development, 5 = all killed (6 ranks vs. untreated); conditions: foliar spray, 500 ppm, 3 weeks, glass house 25° C.
# In short: as §1
# common lambsquarters [14] = experiment: Foliar spread test for upland field; format: in vivo, Chenopodium album; parameters: key: 0 = normal development, 5 = all killed (6 ranks vs. untreated); conditions: foliar spray, 500 ppm, 3 weeks, glass house 25° C.
# In short: as §1
# bulrush = experiment: Herbicidal test for paddy field; format: in vivo, Scrips juncoides; conditions: 500 g/ha, dropwise addition to paddy water at 1.5 leaf stage of barnyard grass; glass house 25° C., 3 weeks; rank 0-5 vs non-treated district
# In short: as §3
# barnyard grass [15] = experiment: Soil treatment test for upland field; format: in vivo, Eschinochloa crusgalli; parameters: key: 0 = normal development, 5 = all killed; conditions: 500 g/ha, 3 weeks, glass house 25° C.
# In short: as §2
# morning glory [16] = experiment: Foliar spread test for upland field; format: in vivo, Ipomoea spps.; parameters: key: 0 = normal development, 5 = all killed (6 ranks vs. untreated); conditions: foliar spray, 500 ppm, 3 weeks, glass house 25° C.
# In short: as §1
# wheat [17] = experiment: Soil treatment test for upland field; format: in vivo; parameters: key: 0 = normal development, 5 = all killed; conditions: 500 g/ha, 3 weeks, glass house 25° C.
# In short: as §2
# corn [18] = experiment: Soil treatment test for upland field; format: in vivo; parameters: key: 0 = normal development, 5 = all killed; conditions: 500 g/ha, 3 weeks, glass house 25° C.
# In short: as §2
# sugar beat [19] = experiment: Soil treatment test for upland field; format: in vivo; parameters: key: 0 = normal development, 5 = all killed; conditions: 500 g/ha, 3 weeks, glass house 25° C.
# In short: as §2
# solgum [20] = experiment: Soil treatment test for upland field; format: in vivo; parameters: key: 0 = normal development, 5 = all killed; conditions: 500 g/ha, 3 weeks, glass house 25° C.
# In short: as §2
# blackgrass [21] = experiment: Soil treatment test for upland field; format: in vivo, Alopecurus aegualis; parameters: key: 0 = normal development, 5 = all killed; conditions: 500 g/ha, 3 weeks, glass house 25° C.
# In short: as §2
# [22] = test system: common Cocklebur (Xanthium strumarium); experiment: Soil treatment test for upland field; format: in vivo; conditions: 500 g/ha, 3 weeks, glass house 25° C.
# Experimental: as §5
# (§6) Wagner pots, each having an area of 1/5000 are, were packed with Ube soil (alluvial soil), and then each seed of corn, soybean, cotton, wheat, solgum, sugar beat, Large crabgrass, barnyard grass, green foxtail, blackgrass, annual bluegrass, common lambsquarters, livid amaranth, velvetleaf, morning glory, common Cocklebur (Xanthium strumarium) and sicklepod (Cassia obtusifolia) were planted and covered with soil.
# (§7) Each wettable powder of the desired compounds (I) shown in Tables 1 to 21, 24, 25, 28 and 29 prepared in accordance with Example 2 was diluted with water containing a surfactant (0.05%) and uniformly sprayed on the surface of each soil so that an effective concentration of the compound (I) in each herbicide became 500 g/ha.
# as §4
# (§8) The herbicidal effects were evaluated according to the evaluation method described in the above (1).
# [23] = test system: sicklepod (Cassia obtusifolia); experiment: Soil treatment test for upland field; format: in vivo; conditions: 500 g/ha, 3 weeks, glass house 25° C.
# Experimental: as §5, §6, §7, §4, §8
# Xanthium pensylvanicum = experiment: Foliar spread test for upland field; format: in vivo; parameters: key: 0 = normal development, 5 = all killed; conditions: foliar spray, 500 ppm, 3 weeks, glass house 25° C.
# Experimental: as §5
# (§9) Wagner pots, each having an area of 1/5000 are, were packed with volcanic ash soil and then each seed of corn, soybean, cotton, wheat, solgum, sugar beat, Large crabgrass, barnyardgrjass, green foxtail, blackgrass, annual bluegrass, common lambsquarters, livid amaranth, velvetleaf, morning glory, Xanthium pensylvanicum and Cassia obtusifolia was planted, covered with soil and grown in a glass house at an average temperature of 25° C. for about 2 weeks.
# (§10) Each wettable powder of the desired compounds (I) shown in Tables 1 to 21, 24, 25, 28 and 29 prepared in accordance with Example 2 was diluted to 500 ppm with water containing a surfactant (0.5%) and then uniformly sprayed on the above respective plants.
# (§11) After these plants were controlled in a glass house at an average temperature of 25° C. for 3 weeks, the herbicidal effects thereof were investigated.
# as §8
# Cassia obtusifolia = experiment: Foliar spread test for upland field; format: in vivo; parameters: key: 0 = normal development, 5 = all killed; conditions: foliar spray, 500 ppm, 3 weeks, glass house 25° C.
# Experimental: as §5, §9, §10, §11, §8
# wheat [24] = experiment: Foliar spread test for upland field; format: in vivo; parameters: key: 0 = normal development, 5 = all killed (6 ranks vs. untreated); conditions: foliar spray, 500 ppm, 3 weeks, glass house 25° C.
# In short: as §1
# cotton = experiment: Foliar spread test for upland field; format: in vivo; parameters: key: 0 = normal development, 5 = all killed (6 ranks vs. untreated); conditions: foliar spray, 500 ppm, 3 weeks, glass house 25° C.
# In short: as §1
# soybean = experiment: Foliar spread test for upland field; format: in vivo; parameters: key: 0 = normal development, 5 = all killed (6 ranks vs. untreated); conditions: foliar spray, 500 ppm, 3 weeks, glass house 25° C.
# In short: as §1
# corn [25] = experiment: Foliar spread test for upland field; format: in vivo; parameters: key: 0 = normal development, 5 = all killed (6 ranks vs. untreated); conditions: foliar spray, 500 ppm, 3 weeks, glass house 25° C.
# In short: as §1
# sugar beat [26] = experiment: Foliar spread test for upland field; format: in vivo; parameters: key: 0 = normal development, 5 = all killed (6 ranks vs. untreated); conditions: foliar spray, 500 ppm, 3 weeks, glass house 25° C.
# In short: as §1
# solgum [27] = experiment: Foliar spread test for upland field; format: in vivo; parameters: key: 0 = normal development, 5 = all killed (6 ranks vs. untreated); conditions: foliar spray, 500 ppm, 3 weeks, glass house 25° C.
# In short: as §1
# morning glory [28] = experiment: Soil treatment test for upland field; format: in vivo, Ipomoea spps.; parameters: key: 0 = normal development, 5 = all killed; conditions: 500 g/ha, 3 weeks, glass house 25° C.
# In short: as §2
# Cyperus serotinus Rottb. = experiment: Herbicidal test for paddy field; format: in vivo; conditions: 500 g/ha, dropwise addition to paddy water at 1.5 leaf stage of barnyard grass; glass house 25° C., 3 weeks; rank 0-5 vs non-treated district
# In short: as §3
SMILES,Effects Barnyardgrass (barnyardgrjass),Effects Blackgrass (blackgrass [1]),Effects Large crabgrass (Large crabgrass [2]),Effects Barnyardgrass (barnyard grass [3]),Effects Green foxtail (green foxtail [4]),Effects Velvetleaf (velvetleaf [5]),Effects Livid amaranth (livid amaranth [6]),Effects Velvetleaf (velvetleaf [7]),Effects Common lambsquarters (common lambsquarters [8]),Effects Green foxtail (green foxtail [9]),Effects Arrowhead (arrowhead),Effects Annual bluegrass (annual bluegrass [11]),Effects Annual bluegrass (annual bluegrass [12]),Effects Large crabgrass (Large crabgrass [13]),Effects Common lambsquarters (common lambsquarters [14]),Effects Bulrush (bulrush),Effects Barnyardgrass (barnyard grass [15]),Effects Morning glory (morning glory [16]),Effects Corn (corn [18]),Effects Sugar beat (sugar beat [19]),also measured
Fc1ccc2oc(-c3cccc(Oc4cccc(C(F)(F)F)c4)n3)nc2c1 [I-a-2],3,3,5,4,5,4,5,5,5,5,1,5,4,4,5,3,4,5,2,5,Effects Livid amaranth (livid amaranth [10]): 5; Effects Wheat (wheat [17]): 1; Effects Solgum (solgum [20]): 1; Effects Blackgrass (blackgrass [21]): 5; Effects Common Cocklebur [22]: 3; Effects Sicklepod [23]: 3; Effects Common Cocklebur (Xanthium pensylvanicum): 4; Effects Sicklepod (Cassia obtusifolia): 4; Effects Wheat (wheat [24]): 2; Effects Sotton (cotton): 4; Effects Soybean (soybean): 3; Effects Corn (corn [25]): 2; Effects Sugar beat (sugar beat [26]): 4; Effects Solgum (solgum [27]): 2; Effects Morning glory (morning glory [28]): 5
COc1ccc2oc(-c3cccc(Oc4cccc(C(F)(F)F)c4)n3)nc2c1 [I-a-4],0,0,0,0,1,3,5,1,0,1,0,0,1,1,5,0,3,5,0,0,Effects Cyperus serotinus Rottb. (Cyperus serotinus Rottb.): 0; Effects Solgum (solgum [20]): 0; Effects Blackgrass (blackgrass [21]): 0; Effects Sicklepod [23]: 0; Effects Common Cocklebur (Xanthium pensylvanicum): 3; Effects Sicklepod (Cassia obtusifolia): 4; Effects Wheat (wheat [24]): 1; Effects Sotton (cotton): 2; Effects Soybean (soybean): 2; Effects Corn (corn [25]): 1; Effects Sugar beat (sugar beat [26]): 4; Effects Solgum (solgum [27]): 1; Effects Morning glory (morning glory [28]): 1
